From patent US20240025862A1, “SUBSTITUTED N-PHENYLURACILS AND SALTS THEREOF, AND USE THEREOF AS HERBICIDAL ACTIVE SUBSTANCES” (Bayer Aktiengesellschaft, priority 2020, published 2024)
Blank lines part the entries; values can stand above or below the compound they belong to.

Legend:
Assay type in all cases: in vivo
[1] = test system: Triticum aestivum (TRZAS); assay: Post-emergence crop plant compatibility, greenhouse pot test; conditions: vs untreated controls
How it was run: (§1)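 Compatibility was scored as visual % effect against untreated controls about 3 weeks after spraying green plant parts at the one-leaf stage. Formulations (WP/EC) were applied in aqueous form with 0.5% additive, 600 l/ha, to greenhouse-grown pot plants.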

Zea mays (ZEAMX) = assay: as above; conditions: vs untreated controls
How it was run: as §1

Glycine max (GLXMA) = assay: as above; conditions: 1.25 g/ha
How it was run: as §1

[2] = test system: Echinochloa crus-galli (ECHCG); assay: Post-emergence herbicidal action, greenhouse pot test (also comparative test C)
How it was run: (§2)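 Greenhouse pot plants in sandy loam were sprayed post-emergence at the one-leaf stage (2–3 weeks after sowing) with WP or EC formulations plus 0.5% additive at 600 l/ha water. Activity was rated visually after about 3 weeks versus untreated controls (100% = dead, 0% = like control); rates were 20 g/ha or less, and 5 g/ha or less in the comparative test.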

[3] = test system: Matricaria inodora (MATIN); assay: as above
How it was run: as §2

[4] = test system: Alopecurus myosuroides (ALOMY); assay: as above; conditions: rated visually after about 3 weeks vs untreated controls, 100% = plants have died
How it was run: as §2

Setaria viridis (SETVI) = assay: as above
How it was run: as §2

Oryza sativa (ORYSA) = assay: Post-emergence crop plant compatibility, greenhouse pot test (also comparative test C); conditions: for Post-emergence action against ORYSA (crop plant compatibility): vs untreated controls
How it was run: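 Visual damage versus untreated plants (0% = like control, 100% = plants died) was scored about 3 weeks after a post-emergence spray in greenhouse pots. Treatment: one-leaf stage, WP or EC in water at 600 l/ha with 0.5% additive; a/b/c mark different dosages on the same crop.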

[5] = test system: Polygonum convolvulus (POLCO); assay: Post-emergence herbicidal action, greenhouse pot test
How it was run: (§3)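 Activity was scored by eye about 3 weeks after treatment against untreated plants, where 100% means dead plants and 0% means no difference. Plants at the one-leaf stage received a foliar spray of WP or EC formulations in water plus 0.5% additive (600 l/ha, up to 20 g/ha). Plants were grown in sandy loam pots in a greenhouse for 2–3 weeks before spraying.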

[6] = test system: Pharbitis purpurea (PHBPU); assay: as above
How it was run: as §3

Lolium rigidum (LOLRI) = assay: as above; conditions: dosage 20 g/ha
How it was run: as §3

Avena fatua (AVEFA) = assay: as above; conditions: 20 g/ha, rated visually after about 3 weeks vs untreated controls, 100% = plants have died
How it was run: as §3

[7] = test system: Amaranthus retroflexus (AMARE); assay: as above; conditions: rated visually after about 3 weeks vs untreated controls, 100% = plants have died
How it was run: as §3

Viola tricolor (VIOTR) = assay: as above
How it was run: as §3

Veronica persica (VERPE) = assay: as above
How it was run: as §3

[8] = test system: Abutilon theophrasti (ABUTH); assay: as above; conditions: rated visually after about 3 weeks vs untreated controls, 100% = plants have died
How it was run: as §3

- Post-emergence action against TRZAS (crop plant compatibility) ([1]; 1.25 g/ha): 10%
- Post-emergence action against TRZAS (crop plant compatibility) ([1]; 5 g/ha): 20%
- Post-emergence action against TRZAS (crop plant compatibility) ([1]; 20 g/ha): 20%
- Post-emergence action against ZEAMX (crop plant compatibility) (Zea mays (ZEAMX); 1.25 g/ha): 10%
- Post-emergence action against ZEAMX (crop plant compatibility) (Zea mays (ZEAMX); 5 g/ha): 20%
- Post-emergence action against GLXMA in % (Glycine max (GLXMA)): 20%
- Post-emergence action against ORYSA (crop plant compatibility) (Oryza sativa (ORYSA); 1.25 g/ha): 0%
- Post-emergence action against ORYSA (crop plant compatibility) (Oryza sativa (ORYSA); 5 g/ha): 10%
- Post-emergence action against ORYSA in % (Oryza sativa (ORYSA); 20 g/ha, crop plant compatibility): 20%
SMILES: COCCOCCOC(=O)COc1ccccc1Oc1cc(-n2c(=O)cc(C(F)(F)F)n(C)c2=O)c(F)cc1[N+](=O)[O-] [I.6-23]
- Post-emergence action at 1.25 g/ha against ECHCG in % ([2]; 1.25 g/ha, rated visually after about 3 weeks vs untreated controls, 100% = plants have died): 80%
- Post-emergence action against ECHCG in % ([2]; dosage 5 g/ha): 90%
- Post-emergence action against ECHCG in % ([2]; dosage 20 g/ha): 100%
- Post-emergence action against MATIN in % ([3]; dosage 1.25 g/ha): 80%
- Post-emergence action against MATIN in % ([3]; dosage 5 g/ha): 100%
- Post-emergence action against MATIN in % ([3]; dosage 20 g/ha): 100%
- Post-emergence action at 5 g/ha against ALOMY in % ([4]; 5 g/ha): 80%
- Post-emergence action at 20 g/ha against ALOMY in % ([4]; 20 g/ha): 90%
- Post-emergence action against SETVI (Setaria viridis (SETVI); 20 g/ha): 100%
- Post-emergence action against SETVI in % (Setaria viridis (SETVI); dosage 1.25 g/ha): 100%
- Post-emergence action against SETVI in % (Setaria viridis (SETVI); dosage 5 g/ha): 100%
- Post-emergence action against POLCO in % ([5]; dosage 1.25 g/ha): 90%
- Post-emergence action against POLCO in % ([5]; dosage 5 g/ha): 100%
- Post-emergence action against POLCO in % ([5]; dosage 20 g/ha): 100%
- Post-emergence action against PHBPU in % ([6]; dosage 1.25 g/ha): 80%
- Post-emergence action against PHBPU in % ([6]; dosage 5 g/ha): 90%
- Post-emergence action against PHBPU in % ([6]; dosage 20 g/ha): 100%
- Post-emergence action against LOLRI in % (Lolium rigidum (LOLRI)): 90%
- Post-emergence action at 20 g/ha against AVEFA in % (Avena fatua (AVEFA)): 90%
- Post-emergence action at 1.25 g/ha against AMARE in % ([7]; 1.25 g/ha): 100%
- Post-emergence action at 5 g/ha against AMARE in % ([7]; 5 g/ha): 100%
- Post-emergence action at 20 g/ha against AMARE in % ([7]; 20 g/ha): 100%
- Post-emergence action against VIOTR (Viola tricolor (VIOTR); 1.25 g/ha): 100%
- Post-emergence action against VIOTR (Viola tricolor (VIOTR); 5 g/ha): 100%
- Post-emergence action against VIOTR (Viola tricolor (VIOTR); 20 g/ha): 100%
- Post-emergence action against VERPE (Veronica persica (VERPE); 1.25 g/ha): 100%
- Post-emergence action against VERPE (Veronica persica (VERPE); 5 g/ha): 100%
- Post-emergence action against VERPE (Veronica persica (VERPE); 20 g/ha): 100%
- Post-emergence action at 1.25 g/ha against ABUTH in % ([8]; 1.25 g/ha): 100%
- Post-emergence action at 5 g/ha against ABUTH in % ([8]; 5 g/ha): 100%
- Post-emergence action at 20 g/ha against ABUTH in % ([8]; 20 g/ha): 100%

- Post-emergence action against TRZAS (crop plant compatibility) ([1]; 1.25 g/ha): 0%
- Post-emergence action against GLXMA in % (Glycine max (GLXMA)): 0%
- Post-emergence action against ORYSA (crop plant compatibility) (Oryza sativa (ORYSA); 1.25 g/ha): 0%
SMILES: CC(C#N)OC(=O)COc1ccccc1Oc1cc(-n2c(=O)cc(C(F)(F)F)n(C)c2=O)c(F)cc1Cl (stereo not drawn) [I.7-177, 1-Cyanoethyl (2-{2-chloro-4-fluoro-5-[3-methyl-2,6-dioxo-4-(trifluoromethyl)-3,6-dihydropyrimidin-1(2H)-yl]phenoxy}phenoxy)acetate]
- pest or weed control at 5 g/ha ([2]; Echinochloa crus-galli, 504 h, dosage 5 g/ha, read-out: Post-emergence action against ECHCG in %): 100%
- pest or weed control at 20 g/ha ([2]; Echinochloa crus-galli, 504 h, dosage 20 g/ha, read-out: Post-emergence action against ECHCG in %): 100%
- pest or weed control at 1.25 g/ha ([3]; Tripleurospermum inodorum, 504 h, dosage 1.25 g/ha, read-out: Post-emergence action against MATIN in %): 80%
- pest or weed control at 5 g/ha ([3]; Tripleurospermum inodorum, 504 h, dosage 5 g/ha, read-out: Post-emergence action against MATIN in %): 80%
- pest or weed control at 20 g/ha ([3]; Tripleurospermum inodorum, 504 h, dosage 20 g/ha, read-out: Post-emergence action against MATIN in %): 80%
- pest or weed control at 5 g/ha ([4]; Alopecurus myosuroides, 504 h, 5 g/ha, read-out: Post-emergence action at 5 g/ha against ALOMY in %): 90%
- pest or weed control at 20 g/ha ([4]; Alopecurus myosuroides, 504 h, 20 g/ha, read-out: Post-emergence action at 20 g/ha against ALOMY in %): 100%
- pest or weed control at 20 g/ha (Setaria viridis (SETVI); Setaria viridis, 504 h, 20 g/ha, read-out: Post-emergence action against SETVI): 100%
- pest or weed control at 1.25 g/ha (Setaria viridis (SETVI); Setaria viridis, 504 h, dosage 1.25 g/ha, read-out: Post-emergence action against SETVI in %): 100%
- pest or weed control at 5 g/ha (Setaria viridis (SETVI); Setaria viridis, 504 h, dosage 5 g/ha, read-out: Post-emergence action against SETVI in %): 100%
- pest or weed control at 5 g/ha ([5]; Fallopia convolvulus, 504 h, dosage 5 g/ha, read-out: Post-emergence action against POLCO in %): 80%
- pest or weed control at 20 g/ha ([5]; Fallopia convolvulus, 504 h, dosage 20 g/ha, read-out: Post-emergence action against POLCO in %): 100%
- pest or weed control at 1.25 g/ha ([6]; Ipomoea purpurea, 504 h, dosage 1.25 g/ha, read-out: Post-emergence action against PHBPU in %): 90%
- pest or weed control at 5 g/ha ([6]; Ipomoea purpurea, 504 h, dosage 5 g/ha, read-out: Post-emergence action against PHBPU in %): 100%
- pest or weed control at 20 g/ha ([6]; Ipomoea purpurea, 504 h, dosage 20 g/ha, read-out: Post-emergence action against PHBPU in %): 100%
- pest or weed control at 20 g/ha (Lolium rigidum (LOLRI); Lolium rigidum, 504 h, read-out: Post-emergence action against LOLRI in %): 80%
- pest or weed control at 20 g/ha (Avena fatua (AVEFA); Avena fatua, 504 h, read-out: Post-emergence action at 20 g/ha against AVEFA in %): 80%
- pest or weed control at 1.25 g/ha ([7]; Amaranthus retroflexus, 504 h, 1.25 g/ha, read-out: Post-emergence action at 1.25 g/ha against AMARE in %): 100%
- pest or weed control at 5 g/ha ([7]; Amaranthus retroflexus, 504 h, 5 g/ha, read-out: Post-emergence action at 5 g/ha against AMARE in %): 100%
- pest or weed control at 20 g/ha ([7]; Amaranthus retroflexus, 504 h, 20 g/ha, read-out: Post-emergence action at 20 g/ha against AMARE in %): 100%
- pest or weed control at 1.25 g/ha (Viola tricolor (VIOTR); Viola tricolor, 504 h, 1.25 g/ha, read-out: Post-emergence action against VIOTR): 100%
- pest or weed control at 5 g/ha (Viola tricolor (VIOTR); Viola tricolor, 504 h, 5 g/ha, read-out: Post-emergence action against VIOTR): 100%
- pest or weed control at 20 g/ha (Viola tricolor (VIOTR); Viola tricolor, 504 h, 20 g/ha, read-out: Post-emergence action against VIOTR): 100%
- pest or weed control at 1.25 g/ha (Veronica persica (VERPE); Veronica persica, 504 h, 1.25 g/ha, read-out: Post-emergence action against VERPE): 90%
- pest or weed control at 5 g/ha (Veronica persica (VERPE); Veronica persica, 504 h, 5 g/ha, read-out: Post-emergence action against VERPE): 100%
- pest or weed control at 20 g/ha (Veronica persica (VERPE); Veronica persica, 504 h, 20 g/ha, read-out: Post-emergence action against VERPE): 100%
- pest or weed control at 1.25 g/ha ([8]; Abutilon theophrasti, 504 h, 1.25 g/ha, read-out: Post-emergence action at 1.25 g/ha against ABUTH in %): 100%
- pest or weed control at 5 g/ha ([8]; Abutilon theophrasti, 504 h, 5 g/ha, read-out: Post-emergence action at 5 g/ha against ABUTH in %): 100%
- pest or weed control at 20 g/ha ([8]; Abutilon theophrasti, 504 h, 20 g/ha, read-out: Post-emergence action at 20 g/ha against ABUTH in %): 100%
